Data as given in PubChem BioAssay (NCI).
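Growth conditions: 96-well plates. Treatment: test compound, 48 hours, 5 concentrations. Analysis: linear interpolation between bracketing concentrations; unreached endpoints set to highest concentration. GI50 = concentration required for 50% inhibition of growth. At the TGI there is no net growth.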

Key:
Assay in all cases: NCI tumour cell line growth inhibition, 48 h; in the data active = GI50 below about 0.43 µM; inactive = the rest
[1] = tested on: 786-0 renal
[2] = tested on: A498 renal
[3] = tested on: A549 NSCLC
[4] = tested on: ACHN renal
[5] = tested on: BT-549 breast
[6] = tested on: CAKI-1 renal
[7] = tested on: CCRF-CEM leukemia
[8] = tested on: COLO 205 colon
[9] = tested on: DU-145 prostate
[10] = tested on: EKVX NSCLC
[11] = tested on: HCC-2998 colon
[12] = tested on: HCT-116 colon
[13] = tested on: HCT-15 colon
[14] = tested on: HL-60(TB) leukemia
[15] = tested on: HOP-62 NSCLC
[16] = tested on: HOP-92 NSCLC
[17] = tested on: HS 578T breast
[18] = tested on: HT29 colon
[19] = tested on: IGROV1 ovarian
[20] = tested on: KM12 colon
[21] = tested on: LOX IMVI melanoma
[22] = tested on: M14 melanoma
[23] = tested on: MALME-3M melanoma
[24] = tested on: MCF7 breast
[25] = tested on: MDA-MB-231 breast
[26] = tested on: MDA-MB-435
[27] = tested on: MOLT-4 leukemia
[28] = tested on: NCI-H226 lung
[29] = tested on: NCI-H23 lung
[30] = tested on: NCI-H460 lung
[31] = tested on: NCI-H522 lung
[32] = tested on: NCI/ADR-RES ovarian
[33] = tested on: OVCAR-3 ovarian
[34] = tested on: OVCAR-4 ovarian
[35] = tested on: OVCAR-5 ovarian
[36] = tested on: OVCAR-8 ovarian
[37] = tested on: PC-3 prostate
[38] = tested on: RPMI-8226 leukemia
[39] = tested on: RXF 393 renal
[40] = tested on: SF-268 CNS
[41] = tested on: SF-295 CNS
[42] = tested on: SF-539 CNS
[43] = tested on: SK-MEL-2 melanoma
[44] = tested on: SK-MEL-28 melanoma
[45] = tested on: SK-MEL-5 melanoma
[46] = tested on: SK-OV-3 ovarian
[47] = tested on: SN12C renal
[48] = tested on: SNB-19 CNS
[49] = tested on: SNB-75 CNS
[50] = tested on: SR leukemia
[51] = tested on: SW-620 colon
[52] = tested on: T-47D breast
[53] = tested on: TK-10 renal
[54] = tested on: U251 CNS
[55] = tested on: UACC-257 melanoma
[56] = tested on: UACC-62 melanoma
[57] = tested on: UO-31 renal

[N-]=[N+]=NCCCn1c2c(c3ccccc3c1=O)C(=O)c1cc(Br)ccc1-2
inactive: GI50 [1] > 100 µM | GI50 [2] > 100 µM | GI50 [3] > 100 µM | GI50 [4] > 100 µM | GI50 [5] > 100 µM | GI50 [6] > 100 µM | GI50 [7] 50.8 µM | GI50 [8] > 100 µM | GI50 [9] > 100 µM | GI50 [10] > 100 µM | GI50 [11] > 100 µM | GI50 [12] > 100 µM | GI50 [13] > 100 µM | GI50 [14] > 100 µM | GI50 [15] > 100 µM | GI50 [16] 9.42 µM | GI50 [17] > 100 µM | GI50 [18] > 100 µM | GI50 [19] > 100 µM | GI50 [20] > 100 µM | GI50 [21] > 100 µM | GI50 [22] > 100 µM | GI50 [23] > 100 µM | GI50 [24] 39.8 µM | GI50 [25] > 100 µM | GI50 [26] > 100 µM | GI50 [27] 28.9 µM | GI50 [28] > 100 µM | GI50 [29] > 100 µM | GI50 [30] 46.8 µM | GI50 [31] > 100 µM | GI50 [32] > 100 µM | GI50 [33] > 100 µM | GI50 [34] > 100 µM | GI50 [35] > 100 µM | GI50 [36] > 100 µM | GI50 [37] > 100 µM | GI50 [38] > 100 µM | GI50 [39] > 100 µM | GI50 [40] > 100 µM | GI50 [41] > 100 µM | GI50 [42] > 100 µM | GI50 [43] > 100 µM | GI50 [44] > 100 µM | GI50 [45] > 100 µM | GI50 [46] > 100 µM | GI50 [47] > 100 µM | GI50 [48] > 100 µM | GI50 [49] 45.1 µM | GI50 [50] 9.82 µM | GI50 [51] > 100 µM | GI50 [52] > 100 µM | GI50 [53] > 100 µM | GI50 [54] > 100 µM | GI50 [55] > 100 µM | GI50 [56] > 100 µM | GI50 [57] > 100 µM
> 100 µM: TGI [1] | TGI [2] | TGI [3] | TGI [4] | TGI [5] | TGI [6] | TGI [7] | TGI [8] | TGI [9] | TGI [10] | TGI [11] | TGI [12] | TGI [13] | TGI [14] | TGI [15] | TGI [17] | TGI [18] | TGI [19] | TGI [20] | TGI [21] | TGI [22] | TGI [23] | TGI [24] | TGI [25] | TGI [26] | TGI [27] | TGI [28] | TGI [29] | TGI [30] | TGI [31] | TGI [32] | TGI [33] | TGI [34] | TGI [35] | TGI [36] | TGI [37] | TGI [38] | TGI [39] | TGI [40] | TGI [41] | TGI [42] | TGI [43] | TGI [44] | TGI [45] | TGI [46] | TGI [47] | TGI [48] | TGI [49] | TGI [51] | TGI [52] | TGI [53] | TGI [54] | TGI [55] | TGI [56] | TGI [57]
51.7 µM: TGI [50]
92.4 µM: TGI [16]
